Assay results from patent publication US12569532B2, “Brain function regulating agent, and food or beverage product containing same” (NITTA GELATIN INC., priority 2019, dated 2026).
Read-outs that look alike come from different tables or passages of the source. Where a SMILES comes first, the peptide text is derived from it. [ ]: non-standard residue; d: D form. Hyp = O=C(O)[C@@H]1C[C@@H](O)CN1

Columns and labels:
[1] = system: cerebellar granule cells (CGC); settings: Wistar, rat, 6 days
Description: (§1) 15 to 25-week-old male and female Wistar rats were provided by purchase from CREA Japan, Inc. Thereafter, the rats were reared under the following conditions: the temperature was 23±2° C., the relative humidity was 55±10%, the lighting cycle was 12 hours, the light period started at 7:00 and ended at 19:00, and the rats were fed with a solid feed (“CE-2” (trade name) manufactured by CREA Japan, Inc) and allowed to freely access drinking water. Under the same conditions as described above, the rats were mated to obtain 7-day-old rats. Further, 3 to 8-day-old Wistar rats were provided by purchase from CREA Japan, Inc.
(§2) The Wistar rats were reared to the age of 7 to 9 days under the above-described conditions, and cerebella were then excised from these rats, and dispersed by the below-described method using the dispersion solutions shown in Table 4 (liquids I to V). In this way, dispersions containing granule cells and other cerebral nerve cells (hereinafter, these cells are also referred to collectively as “cerebellar granule cells (CGC)”) from the cerebella. The cerebellar granule cells (CGC) are cerebral nerve cells. Thereafter, the CGC contained in the dispersions was cultured. […] The method for preparing the cerebellar granule cells (CGC) is as follows.
(§3) First, ten of the 7 to 9-day-old rats were decapitated, and cerebella were excised in the clean bench, and then formed into minced paste with a razor after removal of unnecessary tissues, blood vessels, chorionic membranes and the like. Liquid I was added to the paste to give a suspension, and the suspension was centrifuged at 1,000 rpm for 30 seconds to obtain a first separate liquid containing a supernatant and a cell group. The supernatant was removed from the first separate liquid, liquid II pre-warmed to 37° C. in a thermostatic bath was then added to the remaining cell group little by little, and the mixture was stirred, transferred into a 50 mL medium bottle, and further stirred at 37° C. for 15 minutes to perform tissue digestion with trypsin.
(§4) Next, liquid IV was added to the medium bottle to deactivate the trypsin, and the mixture was centrifuged at 1,000 rpm for 30 seconds to obtain a second separate liquid containing a supernatant and a cell group. The supernatant was removed from the second separate liquid, and a small amount of liquid III was then added to the remaining cell group with a Pasteur pipette to disperse the cell group. Thereafter, the mixture was left standing for 15 minutes to obtain a third separate liquid containing a supernatant and a cell group, and the supernatant was taken into liquid V. To the cell group remaining in the third separate liquid, a small amount of liquid III was added to redisperse the cell group. Thereafter, the mixture was left standing for 5 to 10 minutes to obtain a fourth separate liquid containing a supernatant and a cell group, and the supernatant was taken into liquid V containing the supernatant of the third separate liquid.
(§5) Liquid V containing the supernatant of the third separate liquid and the supernatant of the fourth separate liquid was centrifuged at 1,000 rpm for 5 minutes to obtain a fifth separate liquid containing a supernatant and a cell group. The supernatant was removed from the fifth separate liquid, a basal medium (BME: Basal Medium Eagle manufactured by Sigma-Aldrich Co. LLC) was then added to the remaining cell group, and the mixture was stirred to obtain a mixed liquid containing cerebellar granule cells (CGC) and BME. Thereafter, the mixed liquid was stained with a trypan Blue solution with a concentration of 0.4 mass %, and the number of the stained cells and the viability thereof were measured.

[2] = system: cerebellar granule cells (CGC); settings: Wistar, rat, 6 days; remark: listed apart in the source
Description: Next, K+5 mM serum (+) BME was added to the mixed liquid in such a manner that the cell density of living cells was 1.2×10^5 cells/mL, and the mixture was suspended to obtain a culture sample. The culture sample was seeded at 0.766 mL per well in a 12-well plate pre-coated with poly-L-lysin (PLL) with a concentration of 50 μg/mL, and was cultured in an incubator environment of CO2 with a concentration of 5 vol % at 37° C.
On day 1 after the start of culture, to each well was added cytosine β-D-arabinofuranoside (AraC) to a final concentration of 10 μM for the purpose of suppressing growth of non-neuronal cells while maintaining only CGC. Further, in the below-described control sample, KCl was added to a final concentration of 25 mM. In other samples (samples containing the peptides or amino acids shown in Tables 5 to 7 below), KCl was added with an adjustment made to a final concentration of 15 mM.
Specifically, the percent ratio of the number of living cells in each sample to the number of living cells in the control sample having a KCl concentration of 25 mM was determined, and subjected to statistical processing to evaluate significance of the differentiation promoting action on CGC. […]

[3] = system: cerebellar granule cells (CGC); test: Evaluation Test 2: viability of primary-cultured CGC by MTT assay (differentiation promoting action); settings: for Viability (%): KCl 15 mM, MTT day 7, percent of control sample with KCl 25 mM
Description: as §1, §2, §3, §4, §5

rats = settings: when transferred into the cerebrospinal fluid, NPL 2; cited from earlier work
[4] = system: PC12 cells derived from a rat adrenal pheochromocytoma; settings: PTL 2; cited from earlier work

For `C[C@H](N)C(=O)N1C[C@H](O)C[C@H]1C(=O)O` [AO] (H-Ala-[Hyp]-OH; N-terminus and C-terminus assumed), the “Viability (%)” value ([1]; 0.1 μM) was 55.1%, the “Viability (%)” value ([1]; 1 μM) was 57.0% and the “Viability (%)” value ([1]; 10 μM) was 66.1%. For the same compound, the “Viability (%)” value ([1]; 100 μM) was 64.7% and the “Viability (%)” value ([1]; 1000 μM) was 65.9%.
With `O=C(O)CC[C@@H]1NC(=O)[C@@H]2C[C@@H](O)CN2C1=O` [C-EO] the “Viability (%)” value ([1]; 0.1 μM) was 51.3%, the “Viability (%)” value ([1]; 1 μM) was 52.0% and the “Viability (%)” value ([1]; 10 μM) was 64.8%. For the same compound, the “Viability (%)” value ([1]; 100 μM) was 65.0% and the “Viability (%)” value ([1]; 1000 μM) was 69.3%.
For `O=C1NCC(=O)N2CCC[C@@H]12` [C-GP], the “Viability (%)” value ([1]; 10 μM) was 51.2%, the “Viability (%)” value ([1]; 100 μM) was 46.4% and the “Viability (%)” value ([1]; 1000 μM) was 53.3%.
With `O=C1N[C@@H](Cc2cnc[nH]2)C(=O)N2CCC[C@@H]12` [C-HP] the “Viability (%)” value ([1]; 10 μM) was 65.1%, the “Viability (%)” value ([1]; 100 μM) was 63.9% and the “Viability (%)” value ([1]; 1000 μM) was 69.2%.
For `O=C1NCC(=O)N2C[C@H](O)C[C@@H]12` [C-OG], the “Viability (%)” value ([1]; 0.1 μM) was 57.8%, the “Viability (%)” value ([1]; 1 μM) was 63.2% and the “Viability (%)” value ([1]; 10 μM) was 54.2%. For the same compound, the “Viability (%)” value ([1]; 100 μM) was 50.1% and the “Viability (%)” value ([1]; 1000 μM) was 62.7%.
With `O=C1[C@@H]2C[C@@H](O)CN2C(=O)[C@@H]2CCCN12` [C-PO] the “Viability (%)” value ([1]; 0.1 μM) was 55.7%, the “Viability (%)” value ([1]; 1 μM) was 58.4% and the “Viability (%)” value ([1]; 10 μM) was 73.2%. For the same compound, the “Viability (%)” value ([1]; 100 μM) was 70.6% and the “Viability (%)” value ([1]; 1000 μM) was 68.4%.
With `N[C@@H](CCC(=O)O)C(=O)N1C[C@H](O)C[C@H]1C(=O)NCC(=O)O` [EOG, Glu-Hyp-Gly] (H-Glu-[Hyp]-Gly-OH; N-terminus and C-terminus assumed) the “Viability (%)” value ([1]; 0.1 μM) was 69.9%, the “Viability (%)” value ([1]; 100 μM) was 74.4% and the “Viability (%)” value ([1]; 1000 μM) was 77.7%. The “Viability (%)” value ([2]; 3 μM) was 67.2% and the “Viability (%)” value ([2]; 7 μM) was 72.7%.
With `N[C@@H](CCC(=O)O)C(=O)N1C[C@H](O)C[C@H]1C(=O)O` [EO] (H-Glu-[Hyp]-OH; N-terminus and C-terminus assumed) the “Viability (%)” value ([1]; 0.1 μM) was 52.9%, the “Viability (%)” value ([1]; 1 μM) was 54.8% and the “Viability (%)” value ([1]; 10 μM) was 86.8%. For the same compound, the “Viability (%)” value ([1]; 100 μM) was 81.2% and the “Viability (%)” value ([1]; 1000 μM) was 86.7%.
In the case of `NCC(=O)N1CCC[C@H]1C(=O)N1C[C@H](O)C[C@H]1C(=O)O` [GPO] (H-Gly-Pro-[Hyp]-OH), the “Viability (%)” value ([3]; 0.1 μM added days 1 and 4) was 56.3%, the “Viability (%)” value ([3]; 1 μM added days 1 and 4) was 58.4% and the “Viability (%)” value ([3]; 10 μM added days 1 and 4) was 59.0%. The “Viability (%)” value ([3]; 100 μM added days 1 and 4) was 55.8% and the “Viability (%)” value ([3]; 1000 μM added days 1 and 4) was 61.5%.
For `NCC(=O)N1CCC[C@H]1C(=O)O` [GP] (H-Gly-Pro-OH; N-terminus and C-terminus assumed), the “Viability (%)” value ([3]; 0.1 μM added days 1 and 4) was 48.4%, the “Viability (%)” value ([3]; 1 μM added days 1 and 4) was 61.2% and the “Viability (%)” value ([3]; 10 μM added days 1 and 4) was 65.7%. For the same compound, the “Viability (%)” value ([3]; 100 μM added days 1 and 4) was 63.4% and the “Viability (%)” value ([3]; 1000 μM added days 1 and 4) was 72.2%.
Work on `N[C@@H](CCC(=O)O)C(=O)O` [Glutamic acid, glutamic acid] yielded a viability at 10 µM ([3]; Rattus norvegicus, 168 h) of 58.1%, a viability at 100 µM ([3]; Rattus norvegicus, 168 h) of 52.4% and a viability at 1000 µM ([3]; Rattus norvegicus, 168 h) of 42.4%.
For `N[C@@H](CCC(=O)N[C@@H](CS)C(=O)NCC(=O)O)C(=O)O` [Glutathione, glutathione], the “Viability (%)” value ([3]; 0.01 μM added days 1 and 4) was 73.9%, the “Viability (%)” value ([3]; 0.1 μM added days 1 and 4) was 63.5% and the “Viability (%)” value ([3]; 1 μM added days 1 and 4) was 63.5%. For the same compound, the “Viability (%)” value ([3]; 10 μM added days 1 and 4) was 63.6%, the “Viability (%)” value ([3]; 100 μM added days 1 and 4) was 60.0% and the “Viability (%)” value ([3]; 1000 μM added days 1 and 4) was 67.1%.
Compound `CN[C@H](CC(=O)O)C(=O)O` [NMDA, N-methyl-D-aspartic acid] has a viability at 100 µM ([3]; Rattus norvegicus, 168 h) of 93.4%.
In the case of `O=C(O)CNC(=O)[C@@H]1C[C@@H](O)CN1` [OG] (H-[Hyp]-Gly-OH), the “Viability (%)” value ([3]; 0.1 μM added days 1 and 4) was 54.5%, the “Viability (%)” value ([3]; 1 μM added days 1 and 4) was 61.8% and the “Viability (%)” value ([3]; 10 μM added days 1 and 4) was 77.6%. For the same compound, the “Viability (%)” value ([3]; 100 μM added days 1 and 4) was 72.8% and the “Viability (%)” value ([3]; 1000 μM added days 1 and 4) was 71.1%.
For `O=C(O)[C@@H]1C[C@@H](O)CN1C(=O)[C@@H]1CCCN1` [PO, Pro-Hyp] (H-Pro-[Hyp]-OH; N-terminus and C-terminus assumed), the “Viability (%)” value ([1]; 0.1 μM) was 52.6%, the “Viability (%)” value ([1]; 1 μM) was 51.8% and the “Viability (%)” value ([1]; 10 μM) was 76.3%. The “Viability (%)” value ([1]; 100 μM) was 72.9%, the “Viability (%)” value ([1]; 1000 μM) was 74.0% and the “antidepressant effect” value (rats) was “exhibited an antidepressant effect”.
With “BDNF: brain-derived neurotrophic factor, Reference Example” the “Viability (%)” value ([3]; 100 ng/mL added days 1 and 4) was 76.6%.
In the case of Gly-Pro-Ala, the “neurogenesis promoting action” value [4] is given as “has a neurogenesis promoting action”.
In the case of “IGF-1: listed in Table 5 only, not explained in the text”, the “Viability (%)” value ([3]; 100 ng/mL added days 1 and 4) was 67.1%.
